# Results: the supplement of paper PMC10307832
# Tests used:
# Assay in all cases: relative viability (nuclei count vs DMSO), 5 days (fraction); higher = more cells survive
# NCI-H1666 = system: NCI-H1666
# Summary of the method: (§1)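 Five library-drug doses in √10 steps were combined with a fixed anchor-drug dose, or a single drug was given alone, by pin tool to lung cancer cell lines in 1536-well plates the day after seeding. Nuclei were stained and counted after 5 days. Relative viability is the nuclei count in treated wells over that in vehicle wells, taken as the median of duplicate plates.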
# NCI-H23 = system: NCI-H23
# Summary of the method: as §1
# NCI-H1792 = system: NCI-H1792
# Summary of the method: as §1
# NCI-H838 = system: NCI-H838
# Summary of the method: as §1
# NCI-H441 = system: NCI-H441
# Summary of the method: as §1
# HCC-44 = system: HCC-44
# Summary of the method: as §1
# NCI-H1975 = system: NCI-H1975
# Summary of the method: as §1
# HCC-827 = system: HCC-827
# Summary of the method: as §1
# NCI-H358 = system: NCI-H358
# Summary of the method: as §1
# 201T = system: 201T
# Summary of the method: as §1
# NCI-H596 = system: NCI-H596
# Summary of the method: as §1
compound,measurement,setting,value
CC1(C)CCC(c2ccc(Cl)cc2)=C(CN2CCN(c3ccc(C(=O)NS(=O)(=O)c4ccc(N[C@H](CCN5CCOCC5)CSc5ccccc5)c(S(=O)(=O)C(F)(F)F)c4)cc3)CC2)C1 [Navitoclax] + Cc1nc(NC(=O)N2CCC[C@H]2C(N)=O)sc1-c1ccnc(C(C)(C)C(F)(F)F)c1 [Alpelisib] (partner 2 µM),relative viability,NCI-H1666; first compound 0.005 µM,1.03
same,relative viability,NCI-H1666; first compound 0.01581 µM,0.944
same,relative viability,NCI-H1666; first compound 0.05 µM,1.06
same,relative viability,NCI-H1666; first compound 0.1581 µM,0.878
same,relative viability,NCI-H1666; first compound 0.5 µM,0.958
same,relative viability,NCI-H23; first compound 0.005 µM,0.649
same,relative viability,NCI-H23; first compound 0.01581 µM,0.679
same,relative viability,NCI-H23; first compound 0.05 µM,0.676
same,relative viability,NCI-H23; first compound 0.1581 µM,0.633
same,relative viability,NCI-H23; first compound 0.5 µM,0.598
same,relative viability,NCI-H1792; first compound 0.005 µM,0.735
same,relative viability,NCI-H1792; first compound 0.01581 µM,0.878
same,relative viability,NCI-H1792; first compound 0.05 µM,0.534
same,relative viability,NCI-H1792; first compound 0.1581 µM,0.657
same,relative viability,NCI-H1792; first compound 0.5 µM,0.692
same,relative viability,NCI-H838; first compound 0.005 µM,0.96
same,relative viability,NCI-H838; first compound 0.01581 µM,1.1
same,relative viability,NCI-H838; first compound 0.05 µM,1.12
same,relative viability,NCI-H838; first compound 0.1581 µM,1.03
same,relative viability,NCI-H838; first compound 0.5 µM,1.03
same,relative viability,NCI-H441; first compound 0.005 µM,0.654
same,relative viability,NCI-H441; first compound 0.01581 µM,0.901
same,relative viability,NCI-H441; first compound 0.05 µM,0.852
same,relative viability,NCI-H441; first compound 0.1581 µM,0.743
same,relative viability,NCI-H441; first compound 0.5 µM,0.63
same,relative viability,HCC-44; first compound 0.005 µM,0.736
same,relative viability,HCC-44; first compound 0.01581 µM,0.805
same,relative viability,HCC-44; first compound 0.05 µM,0.849
same,relative viability,HCC-44; first compound 0.1581 µM,0.795
same,relative viability,HCC-44; first compound 0.5 µM,0.694
same,relative viability,NCI-H1975; first compound 0.005 µM,0.639
same,relative viability,NCI-H1975; first compound 0.01581 µM,0.732
same,relative viability,NCI-H1975; first compound 0.05 µM,0.752
same,relative viability,NCI-H1975; first compound 0.1581 µM,0.653
same,relative viability,NCI-H1975; first compound 0.5 µM,0.578
same,relative viability,HCC-827; first compound 0.005 µM,1.07
same,relative viability,HCC-827; first compound 0.01581 µM,1.1
same,relative viability,HCC-827; first compound 0.05 µM,0.766
same,relative viability,HCC-827; first compound 0.1581 µM,1.02
same,relative viability,HCC-827; first compound 0.5 µM,1.01
same,relative viability,NCI-H358; first compound 0.005 µM,0.817
same,relative viability,NCI-H358; first compound 0.01581 µM,0.955
same,relative viability,NCI-H358; first compound 0.05 µM,1.01
same,relative viability,NCI-H358; first compound 0.1581 µM,1.04
same,relative viability,NCI-H358; first compound 0.5 µM,0.856
same,relative viability,201T; first compound 0.005 µM,1.03
same,relative viability,201T; first compound 0.01581 µM,1.04
same,relative viability,201T; first compound 0.05 µM,1.02
same,relative viability,201T; first compound 0.1581 µM,1
same,relative viability,201T; first compound 0.5 µM,1.03
same,relative viability,NCI-H596; first compound 0.005 µM,0.515
same,relative viability,NCI-H596; first compound 0.01581 µM,0.481
same,relative viability,NCI-H596; first compound 0.05 µM,0.399
same,relative viability,NCI-H596; first compound 0.1581 µM,0.57
same,relative viability,NCI-H596; first compound 0.5 µM,0.408
